Literature values, collected in US20200181654A1, “AGLYCONE PRODUCTION PROMOTER” (priority 2016, published 2020).

Conditions: after oral ingestion

| Structure (SMILES) | maximum values of the plasma concentrations of the aglycones, relative to ingestion of the glycosides (daidzin, genistin) |
| --- | --- |
| O=c1c(-c2ccc(O)cc2)coc2cc(O)ccc12 [daidzein] | five times or greater |
| O=c1c(-c2ccc(O)cc2)coc2cc(O)cc(O)c12 [genistein] | five times or greater |
